# Columns and labels:
# Sprague Dawley (SD) rats [1] = test: Histological analysis and GST-p immunostaining of liver, promotion stage; format: in vivo, rat
# Text: In the promotion stage experiment, rats in the negative control group received weekly intraperitoneal (i.p.) injection of DMSO for the first 2 weeks and then Corn Oil for the rest of the schedule. Rats in the positive control and SIN-treatment groups both received weekly intraperitoneal (i.p.) injection of the carcinogen DEN for the first 2 weeks and then promoter, Carbon Tetrachloride (CCl4) for the rest of the schedule. Two weeks of fasting were inserted between the initiator carcinogen treatment and the promoter CCl4 treatment. During the fasting period of 2 weeks, rats were fasted for 5 days, followed by a 2 day feeding, and another 5 days of fasting. Water was given ad libitum. Negative and positive control groups received oral treatment of water once a day after fasting. Sinigrin with dosage 15 mg/kg was administered orally to the treatment group daily for 28 weeks after fasting.
# Histological analysis was performed to observe the basic structure of the hepatocytes. Xylene was purchased from Mallinckrodt. Ethanol was purchased from BDH. ABC staining (Anti-rabbit) kit (sc-2018) was purchased from Santa Cruz. Superfrost Microscope slide was purchased from Fisher. 30% H2O2, DAB and Formaldehyde were purchased from Sigma. Anti-GST-pi rabbit polyclonal antibody was purchased from MBL.
# The liver samples were fixed with 10% formaldehyde and put in cassettes for dehydration and fixed with wax. […]
# HepG2 cells = test: Cell cycle analysis by flow cytometry (PI); format: cell-based, human
# Protocol: Flow Cytometery is a rapid and quantitative method for measuring certain physical and chemical characteristics of cells or particles as they travel in suspension through a sensor. When the cell is labeled with propidium iodide (PI), the DNA content can be measured which is used to determine the stage of the cell cycle. When cell cycles are obtained, a cell cycle map can be recorded.
# HepG2 cells were trypsinized, washed and seeded into […] culture plates in complete RPMI medium. After 24 hours of pre-incubation, different concentrations (250 μM and 500 μM) of SIN were added to the culture plates. The complete RPMI medium was added to one plate containing control cells. After different periods of incubation with SIN, cells were harvested, the medium was removed from the culture plate and the plate was washed twice with 2 ml of 1×PBS buffer. All of the solutions were collected, and the cells were trypsinized and collected. The whole solution was centrifuged at 1,000 rpm for 3 minutes. The supernatant was removed and the cell pellet was resuspended in 1 ml 1×PBS buffer for washing. […]
# The cell pellet was resuspended in 1 ml of 70% ethanol and 0.1 ml of 1×PBS buffer. […] DNA content was analyzed using an FACScan Flow cytometry with sufficient Sheath Fluid. The results were analyzed by the FCS express software produced by the De Novo Software Company.
# Sprague Dawley (SD) rats [2] = test: Serum AST/ALT assay, promotion stage; format: in vivo, rat; conditions: promotion stage (FIG. 10), 15 mg/kg oral daily
# Text: In the promotion stage experiment, rats in the negative control group received weekly intraperitoneal (i.p.) injection of DMSO for the first 2 weeks and then Corn Oil for the rest of the schedule. Rats in the positive control and SIN-treatment groups both received weekly intraperitoneal (i.p.) injection of the carcinogen DEN for the first 2 weeks and then promoter, Carbon Tetrachloride (CCl4) for the rest of the schedule. Two weeks of fasting were inserted between the initiator carcinogen treatment and the promoter CCl4 treatment. During the fasting period of 2 weeks, rats were fasted for 5 days, followed by a 2 day feeding, and another 5 days of fasting. Water was given ad libitum. Negative and positive control groups received oral treatment of water once a day after fasting. Sinigrin with dosage 15 mg/kg was administered orally to the treatment group daily for 28 weeks after fasting. […]
# The serum AST activity assay was measured by a Stanbio AST (UV-Rate) kit. […] Absorbance was measured at OD 340 nm. After incubation for 1 minute, a reading was taken and the reading at this point was counted as time zero. Readings were then taken at 30 second interval for 3 minutes. The change of absorbance per minute was calculated and the AST activity was calculated by the formula
# The ALT assay was measured by a Stanbio […]. […]
compound,measurement,setting,value
"C=CC/C(=N/OS(=O)(=O)[O-])S[C@@H]1OC(CO)[C@@H](O)C(O)C1O.[K+] (stereo partly drawn) [SIN, sinigrin]",hepatocyte structure in liver sections (H&E),Sprague Dawley (SD) rats [1]; 15 mg/kg oral daily,the basic structure of hepatocytes and the central vein were restored
same,GST-p positive area / whole section area,Sprague Dawley (SD) rats [1]; positive control 35%,5%
same,cells arrested in sub G1 phase vs untreated cells,"HepG2 cells; 0.5 mM SIN, 96 hours",the increase of the cells arrested in sub G1 phase becomes very obvious
same,cell cycle effect in HepG2 cells,"HepG2 cells; SIN treatment, 24-96 hours",G0/G1 phase arrest
same,rat serum ALT level,Sprague Dawley (SD) rats [2],levels similar to those in the negative control
same,rat serum AST level,Sprague Dawley (SD) rats [2],levels similar to those in the negative control

# — US20100120703A1, “COMPOSITIONS AND METHODS FOR TREATING CANCER” (priority 2007, published 2010)
